We go through two compounds from patent EP2451450B1, “Inhibitors of proline racemase enzymes for the treatment of Trypanosoma spp infections” (Institut Pasteur, priority 2009, dated 2011).

Assay [1] concerns the target T1, TcPRAC (Trypanosoma cruzi, UniProt Q4DA80).
T1 construct: implied only by nickel IMAC purification; made in house; host or cells: E. coli BL21 (DE3)
The assay can be described thus: L-proline racemization assay, formed D-proline determined by DAAOx test. It counts as biochemical. The note with it: ligand 10 µM; 10 mM L-proline; 22.4 mg/ml TcPRAC; 5.0mM without ligand. On the procedure: (§1) Briefly, classical assays of Proline racemization induced by TcPRAC were performed in tubes in a final volume of 1.5 ml and optical rotations measured in a polarimeter 241MC (Perkin Elmer). Parallel assays of Proline racemization were transposed into microplates in a final volume of 100 µl, as follows: serial dilutions of L- Proline ranging from 40 mM to 2.5 mM were prepared in 0.2 M sodium acetate pH 6.0 containing 0.25 mM rTcPRAC and loaded into microplate wells in the presence or in the absence of 0 - 20 µM pyrrole-2 carboxylic acid (PYC) or of similar dilutions of unknown potential inhibitors. Specific control wells were included omitting the TcPRAC and/or the PYC.
Microplates were incubated for 30 minutes at 37° C. Enzyme activity was then inactivated by heating the plate for 15 seconds in a microwave oven at 900 watts after shifting the pH of wells to 8.3 by addition of 6.8 µl of 0.235 M sodium Pyrophosphate. 50 µl of each well were used to test the presence of D-Proline using the DAAOx (D-amino acid oxidase) test described below. L- amino acids may react at very low rate with DAAOx. For instance, DAAOx reacts with L-Proline 300 times slower than D-Proline. Consequently, when assessing amino acid racemization products, standards should consist of serial dilution of equimolar mixtures of specific D- and L-amino acids ranging from 0 to 20 mM (10 mM final) to take into account any interference of possible reactivity with DAAOx of the L- form of amino acids present in the samples.
Solution A consisting of 0.2 M sodium acetate/0.016 M sodium pyrophosphate (Pop) buffer, pH 8.3 was used to prepare the enzyme stock solutions conserved in 50% glycerol, namely: 50 U/ml D-amino acid oxidase from pig kidney (DAAOx, Sigma) and 5000 U/ml Horse Raddish Peroxydase (HRP, Sigma). Stock solutions of L- proline (1M), D- proline (1M) and Pyrrole-2-carboxylic acid (10 mM) (PYC, Sigma) are also prepared in solution A. 10^-1 M FAD (Sigma) stock was prepared in water. Solution B consists in adding to solution A the following reagents at a final concentration in the assay of 1 U/ml for DAAOx, 0.5 mg/ml orthophenylenediamine (OPD, Sigma), 37.5 U/ml HRP and FAD (1.5x10^-5 M FAD). The test is run in 96 wells micro plates (Nunc, Denmark). […] OD 490nm - 650nm is obtained with a microtiter plate reader (Molecular Devices), and compared to those obtained with blank control wells.
The values presented in Table 2A correspond to racemization reactions performed in the absence or in the presence of 10 µM concentration of the different ligands. […] Briefly, 22.4 mg/ml of active TcPRAC was used in the racemization assays of 10 mM L-proline substrate and the concentration of formed D-proline was determined by the DAAOx test, as described in the Material and Methods. […]

Assay [2] addresses T1, TcPRAC. The assay can be described thus: L-proline racemization assay by polarimetry. The note with it: for potency relative to PYC in terms of TcPRAC inhibition: based on the DAAOx test and polarimetry; for Racemization Inhibition: L-Proline 20 mM, 30 minutes 37°C, 0.25 µM TcPRAC. The assay is classed as biochemical. On the procedure: as §1
The values presented in Table 2B correspond to racemization reactions performed in the absence or in the presence of the different inhibitors. Note that 6 µM PYC is necessary to inhibit 100 % of the racemization of 10-20 mM L-proline. Briefly, L-Proline (20 mM) were incubated for 30 minutes at 37°C in test tubes with or without 0.25 µM TcPRAC in 0.2 M sodium acetate pH 6. Reactions were stopped by heating at 65° C for 10 minutes. Reaction volumes were analyzed for D-Proline formation, by measuring optical rotations in a polarimeter (365nm).

Each structure is given as a SMILES string.

T1 sequence (Q4DA80 32-423): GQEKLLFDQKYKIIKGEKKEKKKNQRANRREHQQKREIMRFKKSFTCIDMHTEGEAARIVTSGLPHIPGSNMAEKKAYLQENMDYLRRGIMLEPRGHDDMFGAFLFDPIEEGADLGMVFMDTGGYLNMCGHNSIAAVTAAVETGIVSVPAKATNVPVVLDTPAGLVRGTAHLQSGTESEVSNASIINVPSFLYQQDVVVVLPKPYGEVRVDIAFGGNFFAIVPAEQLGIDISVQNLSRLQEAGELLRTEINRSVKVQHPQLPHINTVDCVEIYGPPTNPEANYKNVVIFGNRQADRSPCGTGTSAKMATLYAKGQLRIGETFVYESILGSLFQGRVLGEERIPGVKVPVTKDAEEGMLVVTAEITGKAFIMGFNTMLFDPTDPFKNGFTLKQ

Regarding `O=C(O)/C=C/C(=O)CBr` [Br-OxoPA, (E)-5-bromo-4-oxopent-2-enoic acid], the “Formed D-Proline” value in assay [1] is < 0,3 mM. Further, the “potency relative to PYC in terms of TcPRAC inhibition” value in assay [2] amounted to 4 fold. Moreover, the “Racemization Inhibition” value in assay [2] (ligand 2.5 µM) was found to be 50.0%; in assay [2] (ligand 10.0 µM), 81.3%.

As to `CC(=O)/C=C/C(=O)O` [OxoPA, (E)-4-oxopent-2-enoic acid], in assay [1], the “Formed D-Proline” value is < 0,3 mM. Moreover, the “potency relative to PYC in terms of TcPRAC inhibition” value in assay [2] was determined as 2 fold. Besides, the “Racemization Inhibition” value in assay [2] (ligand 3.0 µM) is 50.0%.
